Measured values reported in PMC8585091, “Central Carbon Metabolism, Sodium-Motive Electron Transfer, and Ammonium Formation by the Vaginal Pathogen Prevotella bivia” (International Journal of Molecular Sciences, 2021).

Biological target: T1, cytochrome bd quinol oxidase (Prevotella bivia, UniProt I4Z6X5)
T1 construct: gene PrebiDRAFT_0174; native complex in DDM-solubilized membranes, not purified; ORFs cyd-2 1143 bp and cyd-1 1536 bp; with Cytochrome bd ubiquinol oxidase subunit II
T1 sequence (I4Z6X5 1-511): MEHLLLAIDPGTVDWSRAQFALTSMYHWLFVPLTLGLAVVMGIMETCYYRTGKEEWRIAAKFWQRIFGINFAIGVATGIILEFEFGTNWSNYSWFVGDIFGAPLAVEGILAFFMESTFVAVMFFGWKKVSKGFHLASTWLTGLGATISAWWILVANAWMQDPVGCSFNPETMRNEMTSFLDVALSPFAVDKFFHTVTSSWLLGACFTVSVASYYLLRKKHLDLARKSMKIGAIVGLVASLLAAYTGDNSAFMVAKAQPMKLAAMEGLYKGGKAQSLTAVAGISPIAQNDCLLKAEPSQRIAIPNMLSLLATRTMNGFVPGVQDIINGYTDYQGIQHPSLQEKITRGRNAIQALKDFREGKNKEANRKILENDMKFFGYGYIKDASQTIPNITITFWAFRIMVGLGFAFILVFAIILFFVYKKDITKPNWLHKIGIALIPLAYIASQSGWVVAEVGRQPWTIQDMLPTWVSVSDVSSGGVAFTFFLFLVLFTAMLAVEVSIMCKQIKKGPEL
T1 sequence (I4Z6X4 1-380 partner): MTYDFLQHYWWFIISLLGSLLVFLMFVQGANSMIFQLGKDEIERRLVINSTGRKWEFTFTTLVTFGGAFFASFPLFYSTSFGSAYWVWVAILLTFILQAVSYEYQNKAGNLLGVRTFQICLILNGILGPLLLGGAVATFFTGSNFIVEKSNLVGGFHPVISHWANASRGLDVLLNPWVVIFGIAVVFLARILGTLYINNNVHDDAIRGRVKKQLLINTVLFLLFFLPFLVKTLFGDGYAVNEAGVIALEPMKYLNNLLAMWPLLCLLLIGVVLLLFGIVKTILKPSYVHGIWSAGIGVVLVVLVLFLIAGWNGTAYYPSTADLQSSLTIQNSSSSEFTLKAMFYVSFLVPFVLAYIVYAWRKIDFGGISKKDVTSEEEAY
Experiment: DMNH2 oxidation with H2O2 (peroxidase activity), double-beam photometer
Format: biochemical
Conditions: solubilized membranes; 200 µM DMNH2, H2O2 as acceptor, pH 7.0, 100 mM NaCl, anoxic

For `Cc1c(C)c(O)c2ccccc2c1O` [2,3-dimethyl-1,4-naphthoquinol], the “DMNH2 oxidation with H2O2 (peroxidase activity), double-beam photometer” value was “Solubilized membranes catalyzed the oxidation of the DMNH2 with H2O2 as an electron acceptor”.
